# Reference: ChEMBL document CHEMBL4152347 (J Med Chem, 2018)
# What was measured:
# [1] = test system: Human immunodeficiency virus 1; assay: microbe, parasite or virus in culture; conditions: Human immunodeficiency virus 1, MT2
# [2] = test system: Human immunodeficiency virus 1; assay: microbe, parasite or virus in culture; conditions: Human immunodeficiency virus 1, MT2; remark: listed apart in the source
# Description: Antiviral activity against wild type HIV1 infected in human MT2 cells after 4 to 5 days by dual luciferase reporter gene assay
# [3] = test system: Human immunodeficiency virus 1; assay: microbe, parasite or virus in culture; conditions: Human immunodeficiency virus 1, MT2; remark: listed apart in the source
# Description: Antiviral activity against HIV1 expressing gag delta V370 mutant infected in human MT2 cells after 4 to 5 days by dual luciferase reporter gene assay
# [4] = in vitro; conditions: rat, liver microsomes
# Description: Half life in rat liver microsomes at 0.5 uM after 1 hr in presence of NADPH by LC-MS/MS analysis
# [5] = test system: Human immunodeficiency virus 1; assay: microbe, parasite or virus in culture; conditions: Human immunodeficiency virus 1, MT2; remark: listed apart in the source
# Description: Antiviral activity against wild type HIV1 infected in human MT2 cells after 4 to 5 days in presence of 10% FBS and 40% human serum albumin by dual luciferase reporter gene assay
# [6] = in vitro; conditions: human, liver microsomes
# Description: Half life in human liver microsomes at 0.5 uM after 1 hr in presence of NADPH by LC-MS/MS analysis
# [7] = in vitro; conditions: human, MT2 cells
# Description: Cytotoxicity against human MT2 cells assessed as reduction in cell viability
# [8] = in vivo; conditions: Sprague-Dawley, rat, po, 5 mg/kg
Compound,EC50 [1] [nM],EC50 [2] [nM],EC50 [3] [nM],"half-life at 1 h, 0.5 µM [4] [min]",EC50 [5] [nM],"half-life at 1 h, 0.5 µM [6] [min]",CC50 [7] [µM],AUC(0-t) at 24 h [8] [µM·h]
C=C(C)[C@@H]1CC[C@]2(NCCN3CCC(S(C)(=O)=O)CC3)CC[C@]3(C)[C@H](CC[C@@H]4[C@@]5(C)CC=C(c6ccc(C(=O)O)cc6)C(C)(C)[C@@H]5CC[C@]43C)[C@@H]12,2.7,1.8,12,> 120,6.1,> 120,13.7,
C=C(C)[C@@H]1CC[C@]2(NCCN3CC4(C3)CN(S(C)(=O)=O)C4)CC[C@]3(C)[C@H](CC[C@@H]4[C@@]5(C)CC=C(c6ccc(C(=O)O)cc6)C(C)(C)[C@@H]5CC[C@]43C)[C@@H]12,,1.6,13.3,> 120,7.4,> 120,12,
C=C(C)[C@@H]1CC[C@]2(NCCN3C[C@@H]4C[C@H]3CN4S(C)(=O)=O)CC[C@]3(C)[C@H](CC[C@@H]4[C@@]5(C)CC=C(c6ccc(C(=O)O)cc6)C(C)(C)[C@@H]5CC[C@]43C)[C@@H]12,2.9,2.7,9.3,> 120,,> 120,9.3,7.08
C=C(C)[C@@H]1CC[C@]2(C(=O)NCCC(=O)O)CC[C@]3(C)[C@H](CC[C@@H]4[C@@]5(C)CC=C(c6ccc(C(=O)O)cc6)C(C)(C)[C@@H]5CC[C@]43C)[C@@H]12,,,,> 120,,> 120,,79.3
C=C(C)[C@@H]1CC[C@]2(NCCNC3CCN(S(C)(=O)=O)C3)CC[C@]3(C)[C@H](CC[C@@H]4[C@@]5(C)CC=C(c6ccc(C(=O)O)cc6)C(C)(C)[C@@H]5CC[C@]43C)[C@@H]12 (some centres undefined),,1.9,,> 120,13.7,> 120,10.7,
C=C(C)[C@@H]1CC[C@]2(NCCN3CC4C(C3)C4NS(C)(=O)=O)CC[C@]3(C)[C@H](CC[C@@H]4[C@@]5(C)CC=C(c6ccc(C(=O)O)cc6)C(C)(C)[C@@H]5CC[C@]43C)[C@@H]12 (some centres undefined),,2.8,18,> 120,21.3,> 120,15.2,
C=C(C)[C@@H]1CC[C@]2(NCCN3CCN(S(=O)(=O)C(C)C)CC3)CC[C@]3(C)[C@H](CC[C@@H]4[C@@]5(C)CC=C(c6ccc(C(=O)O)cc6)C(C)(C)[C@@H]5CC[C@]43C)[C@@H]12,9.9,5.2,64.2,> 120,,> 120,11.9,
C=C(C)[C@@H]1CC[C@]2(NCCNC3CCS(=O)(=O)C3)CC[C@]3(C)[C@H](CC[C@@H]4[C@@]5(C)CC=C(c6ccc(C(=O)O)cc6)C(C)(C)[C@@H]5CC[C@]43C)[C@@H]12 (some centres undefined),3.7,2.2,11.6,> 120,15.9,> 120,11.1,
C=C(C)[C@@H]1CC[C@]2(NCCN3CCCCS3(=O)=O)CC[C@]3(C)[C@H](CC[C@@H]4[C@@]5(C)CC=C(c6ccc(C(=O)O)cc6)C(C)(C)[C@@H]5CC[C@]43C)[C@@H]12,2.5,4,36.8,> 120,,> 120,9.53,4.24
C=C(C)[C@@H]1CC[C@]2(NC(=O)CCN3CCS(=O)(=O)CC3)CC[C@]3(C)[C@H](CC[C@@H]4[C@@]5(C)CC=C(c6ccc(C(=O)O)cc6)C(C)(C)[C@@H]5CC[C@]43C)[C@@H]12,11.2,6.8,101,> 120,,> 120,16.3,
C=C(C)[C@@H]1CC[C@]2(NCCN3CCC4(C3)CN(S(C)(=O)=O)C4)CC[C@]3(C)[C@H](CC[C@@H]4[C@@]5(C)CC=C(c6ccc(C(=O)O)cc6)C(C)(C)[C@@H]5CC[C@]43C)[C@@H]12,,1.7,11.4,> 120,24.5,> 120,11,
C=C(C)[C@@H]1CC[C@]2(NC(=O)NCCN3CCS(=O)(=O)CC3)CC[C@]3(C)[C@H](CC[C@@H]4[C@@]5(C)CC=C(c6ccc(C(=O)O)cc6)C(C)(C)[C@@H]5CC[C@]43C)[C@@H]12,4.9,5.9,63.5,> 120,,> 120,17.6,
C=C(C)[C@@H]1CC[C@]2(C(=O)NCCN3CCS(=O)(=O)CC3)CC[C@]3(C)[C@H](CC[C@@H]4[C@@]5(C)CC=C(c6ccc(C(=O)O)cc6)C(C)(C)[C@@H]5CC[C@]43C)[C@@H]12,5.5,2.4,60.5,> 120,,> 120,7.9,2.47
C=C(C)[C@@H]1CC[C@]2(NCCN3CCN(S(=O)(=O)CC)CC3)CC[C@]3(C)[C@H](CC[C@@H]4[C@@]5(C)CC=C(c6ccc(C(=O)O)cc6)C(C)(C)[C@@H]5CC[C@]43C)[C@@H]12,10.2,3.7,19.6,> 120,,> 120,13.4,
C=C(C)[C@@H]1CC[C@]2(NC(=O)C(C)N3CCS(=O)(=O)CC3)CC[C@]3(C)[C@H](CC[C@@H]4[C@@]5(C)CC=C(c6ccc(C(=O)O)cc6)C(C)(C)[C@@H]5CC[C@]43C)[C@@H]12 (some centres undefined),5,1.8,123,> 120,,> 120,> 10,
C=C(C)[C@@H]1CC[C@]2(NC(=O)C(C(C)C)N3CCS(=O)(=O)CC3)CC[C@]3(C)[C@H](CC[C@@H]4[C@@]5(C)CC=C(c6ccc(C(=O)O)cc6)C(C)(C)[C@@H]5CC[C@]43C)[C@@H]12 (some centres undefined),7.1,3.9,727,> 120,,> 120,23.5,
C=C(C)[C@@H]1CC[C@]2(NCCC3CCS(=O)(=O)CC3)CC[C@]3(C)[C@H](CC[C@@H]4[C@@]5(C)CC=C(c6ccc(C(=O)O)cc6)C(C)(C)[C@@H]5CC[C@]43C)[C@@H]12,,3.7,,> 120,37.5,> 120,4.55,
C=C(C)[C@@H]1CC[C@]2(NC(=O)OCCN3CCS(=O)(=O)CC3)CC[C@]3(C)[C@H](CC[C@@H]4[C@@]5(C)CC=C(c6ccc(C(=O)O)cc6)C(C)(C)[C@@H]5CC[C@]43C)[C@@H]12,10.7,4.6,93.9,> 120,,> 120,9.9,4.97
